Legend:
[1] = system: transcriptional activity of hTERT; test: SEAP reporter assay of hTERT expression, PhTERT-SEAP (hTERT-BJ1); type: cell-based, human
In short: (§1)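 H1299 or hTERT-BJ1 cells stably carrying hTERT- or CMV-promoter–SEAP constructs (G418-selected), treated with compounds for 24 h at 37 °C. Media heated 65 °C for 10 min, mixed with diethanolamine buffer and 12 mM p-nitrophenyl phosphate; SEAP activity taken as the rate of A405 increase.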

[2] = system: transcriptional activity of hTERT; test: SEAP reporter assay of hTERT expression, PhTERT-SEAP (H1299); type: cell-based, human
In short: as §1

[3] = MTT relative viability, PhTERT-SEAP (hTERT-BJ1) cells; conditions: human
[4] = system: iron-induced lipid peroxidation in rat brain homogenates; test: Iron-induced lipid peroxidation in rat brain homogenates; conditions: 10 mM; mean percent inhibition (Table 3)
rat glioma C6 cells = test: Cytotoxicity assay (XTT colorimetric), C6 cells; type: cell-based; conditions: Rattus norvegicus, C6; 48 h of drug exposure
human hepatoma G2 cells = test: Cytotoxicity assay (XTT colorimetric), Hep G2; type: cell-based; conditions: Homo sapiens, HepG2; 48 h of drug exposure
[5] = MTT relative viability, PhTERT-SEAP (H1299) cells; conditions: human
[6] = system: hepatitis B virus transfected hepatoma cell lines, HepG 2.2.15 cells; test: Cytotoxicity assay, 2.2.15 cells; type: cell-based, human; conditions: Homo sapiens, HepG2.2.15; 48 h of drug exposure
[7] = hTERT-BJ1 cells, stable PhTERT-SEAP reporter clone
[8] = hTERT-BJ1 cells stably transfected with PhTERT-SEAP reporter

O=C(Cc1ccccc1)Oc1cccc2c1C(=O)c1cccc(OC(=O)Cc3ccccc3)c1C2=O [IIIm, 1,5-Bis(phenylacetyloxy)-anthraquinone]
activity at 2.1 µM ([1]; Homo sapiens, 2.1 μM, hTERT-BJ1, read-out: Relative SEAP activity (%)): 129 ± 4.5%
activity at 21 µM ([1]; Homo sapiens, 21 μM, hTERT-BJ1, read-out: Relative SEAP activity (%)): 125 ± 4.3%
activity at 210 µM ([1]; Homo sapiens, 210 μM, hTERT-BJ1, read-out: Relative SEAP activity (%)): 100 ± 17.3%
activity at 2.1 µM ([2]; Homo sapiens, NCI-H1299, 2.1 μM, H1299, read-out: Relative SEAP activity (%)): 98 ± 0.3%
activity at 21 µM ([2]; Homo sapiens, NCI-H1299, 21 μM, H1299, read-out: Relative SEAP activity (%)): 101 ± 6.8%
activity at 210 µM ([2]; Homo sapiens, NCI-H1299, 210 μM, H1299, read-out: Relative SEAP activity (%)): 142 ± 14%
viability at 48 h, 2.1 µM [3]: 106 ± 9%
viability at 48 h, 21 µM [3]: 97 ± 8.2%
viability at 48 h, 210 µM [3]: 64 ± 10.2%
Inhibition of LP(10 mM) [4]: −1 ± 0.2%
IC50 (rat glioma C6 cells): 39.1 ± 6.2 µM
IC50 (human hepatoma G2 cells): 9 ± 1.5 µM
melting point: 202 to 203 °C
viability at 48 h, 2.1 µM [5]: 91 ± 4.2%
viability at 48 h, 21 µM [5]: 53 ± 2.3%
viability at 48 h, 210 µM [5]: 30 ± 1.6%

O=C1c2ccccc2C(=O)c2c(NC(=O)[C@@H]3C[C@H]3c3ccccc3)ccc(NC(=O)[C@@H]3C[C@H]3c3ccccc3)c21 (relative stereo) [VI27, 1,4-Bis(trans-2-phenyl-1-cyclopropaneamido)-9,10-anthracenedione]
IC50 [6]: 19.5 µM
SEAP/vibility ([1]; 1.8 μM, PhTERT-SEAP (hTERT-BJ1)): 0.89
SEAP/vibility ([1]; 18 μM, PhTERT-SEAP (hTERT-BJ1)): 0.99
SEAP/vibility ([1]; 189 μM, PhTERT-SEAP (hTERT-BJ1)): 0.98
activity at 1.8 µM ([1]; Homo sapiens, 1.8 μM, PhTERT-SEAP (hTERT-BJ1), read-out: Relative SEAP activity (%)): 92 ± 16.9%
activity at 18 µM ([1]; Homo sapiens, 18 μM, PhTERT-SEAP (hTERT-BJ1), read-out: Relative SEAP activity (%)): 97 ± 18.2%
activity at 189 µM ([1]; Homo sapiens, 189 μM, PhTERT-SEAP (hTERT-BJ1), read-out: Relative SEAP activity (%)): 102 ± 16.6%
SEAP/vibility ([2]; 1.8 μM, PhTERT-SEAP(hTERT-H1299)): 0.94
SEAP/vibility ([2]; 18 μM, PhTERT-SEAP(hTERT-H1299)): 0.93
SEAP/vibility ([2]; 189 μM, PhTERT-SEAP(hTERT-H1299)): 0.92
activity at 1.8 µM ([2]; Homo sapiens, NCI-H1299, 1.8 μM, PhTERT-SEAP(hTERT-H1299), read-out: Relative SEAP activity (%)): 95 ± 7.7%
activity at 18 µM ([2]; Homo sapiens, NCI-H1299, 18 μM, PhTERT-SEAP(hTERT-H1299), read-out: Relative SEAP activity (%)): 93 ± 3.2%
activity at 189 µM ([2]; Homo sapiens, NCI-H1299, 189 μM, PhTERT-SEAP(hTERT-H1299), read-out: Relative SEAP activity (%)): 87 ± 3.6%
viability at 48 h, 1.8 µM [3, 7]: 92 ± 16.9%
viability at 48 h, 18 µM [3, 7]: 97 ± 18.2%
viability at 48 h, 189 µM [3, 7]: 104 ± 10.7%
IC50 (rat glioma C6 cells): > 20 µM
IC50 (human hepatoma G2 cells): > 20 µM
melting point: 272 to 274 °C
viability at 48 h, 1.8 µM [5]: 101 ± 2.4%
viability at 48 h, 18 µM [5]: 100 ± 4.7%
viability at 48 h, 189 µM [5]: 94 ± 3.5%

CCCNc1cccc2c1C(=O)c1cccc(NCCC)c1C2=O [IVf, 1,5-Bis(propylamino)anthraquinone]
IC50 [6]: 1.94 µM
activity at 3.1 µM ([1]; Homo sapiens, 3.1 μM, hTERT-BJ1, read-out: Relative SEAP activity (%)): 18 ± 16.7%
activity at 31 µM ([1]; Homo sapiens, 31 μM, hTERT-BJ1, read-out: Relative SEAP activity (%)): 19 ± 24.6%
activity at 310 µM ([1]; Homo sapiens, 310 μM, hTERT-BJ1, read-out: Relative SEAP activity (%)): -7%
activity at 3.1 µM ([2]; Homo sapiens, NCI-H1299, 3.1 μM, hTERT-H1299, read-out: Relative SEAP activity (%)): 101 ± 15.3%
activity at 31 µM ([2]; Homo sapiens, NCI-H1299, 31 μM, hTERT-H1299, read-out: Relative SEAP activity (%)): 100 ± 5.6%
activity at 310 µM ([2]; Homo sapiens, NCI-H1299, 310 μM, hTERT-H1299, read-out: Relative SEAP activity (%)): 89 ± 8.3%
viability at 48 h, 3.1 µM ([3]; hTERT-BJ1 cells): 97 ± 5.6%
viability at 48 h, 31 µM ([3]; hTERT-BJ1 cells): 93 ± 8.9%
viability at 48 h, 310 µM ([3]; hTERT-BJ1 cells): 42 ± 8.1%
IC50 (rat glioma C6 cells): 16 ± 0.68 µM
IC50 (human hepatoma G2 cells): 1.74 ± 0.14 µM
melting point: 153 to 154 °C
viability at 48 h, 3.1 µM [5]: 99 ± 7.6%
viability at 48 h, 31 µM [5]: 98 ± 5.8%
viability at 48 h, 310 µM [5]: 46 ± 9.5%

O=C(CCl)Nc1ccc(NC(=O)CCl)c2c1C(=O)c1ccccc1C2=O [VI1, 1,4-Bis(chloroacetamido)-9,10-anthracenedione]
IC50 [6]: > 20 µM
SEAP/vibility ([1]; 2.5 μM, PhTERT-SEAP (hTERT-BJ1)): 1.23
SEAP/vibility ([1]; 25 μM, PhTERT-SEAP (hTERT-BJ1)): 1.53
SEAP/vibility ([1]; 255 μM, PhTERT-SEAP (hTERT-BJ1)): 2.76
activity at 2.5 µM ([1]; Homo sapiens, 2.5 μM, PhTERT-SEAP (hTERT-BJ1), read-out: Relative SEAP activity (%)): 123 ± 16.8%
activity at 25 µM ([1]; Homo sapiens, 25 μM, PhTERT-SEAP (hTERT-BJ1), read-out: Relative SEAP activity (%)): 129 ± 17.7%
activity at 255 µM ([1]; Homo sapiens, 255 μM, PhTERT-SEAP (hTERT-BJ1), read-out: Relative SEAP activity (%)): 121 ± 10.9%
SEAP/vibility ([2]; 2.5 μM, PhTERT-SEAP(hTERT-H1299)): 0.98
SEAP/vibility ([2]; 25 μM, PhTERT-SEAP(hTERT-H1299)): 1.14
SEAP/vibility ([2]; 255 μM, PhTERT-SEAP(hTERT-H1299)): 4.66
activity at 2.5 µM ([2]; Homo sapiens, NCI-H1299, 2.5 μM, PhTERT-SEAP(hTERT-H1299), read-out: Relative SEAP activity (%)): 102 ± 5.3%
activity at 25 µM ([2]; Homo sapiens, NCI-H1299, 25 μM, PhTERT-SEAP(hTERT-H1299), read-out: Relative SEAP activity (%)): 110 ± 8.8%
activity at 255 µM ([2]; Homo sapiens, NCI-H1299, 255 μM, PhTERT-SEAP(hTERT-H1299), read-out: Relative SEAP activity (%)): 97 ± 7.1%
viability at 48 h, 2.5 µM [3, 8]: 101 ± 2.7%
viability at 48 h, 25 µM [3, 8]: 84 ± 6.3%
viability at 48 h, 255 µM [3, 7]: 44 ± 4.7%
IC50 (rat glioma C6 cells): > 20 µM
IC50 (human hepatoma G2 cells): > 20 µM
melting point: 285 to 287 °C
viability at 48 h, 2.5 µM [5]: 104 ± 5.5%
viability at 48 h, 25 µM [5]: 96 ± 3.8%
viability at 48 h, 255 µM [5]: 21 ± 1.5%

O=C(Cc1cccs1)Nc1ccc(NC(=O)Cc2cccs2)c2c1C(=O)c1ccccc1C2=O [VI25, 1,4-Bis(2-thiopheneacetamido)-9,10-anthracenedione]
IC50 [6]: 15.5 µM
SEAP/vibility ([1]; 2.0 μM, PhTERT-SEAP (hTERT-BJ1)): 0.45
SEAP/vibility ([1]; 20 μM, PhTERT-SEAP (hTERT-BJ1)): 0.38
SEAP/vibility ([1]; 205 μM, PhTERT-SEAP (hTERT-BJ1)): 0.19
activity at 2 µM ([1]; Homo sapiens, 2.0 μM, PhTERT-SEAP (hTERT-BJ1), read-out: Relative SEAP activity (%)): 53 ± 17.4%
activity at 20 µM ([1]; Homo sapiens, 20 μM, PhTERT-SEAP (hTERT-BJ1), read-out: Relative SEAP activity (%)): 40 ± 12.7%
activity at 205 µM ([1]; Homo sapiens, 205 μM, PhTERT-SEAP (hTERT-BJ1), read-out: Relative SEAP activity (%)): 14 ± 24.1%
SEAP/vibility ([2]; 2.0 μM, PhTERT-SEAP(hTERT-H1299)): 1.06
SEAP/vibility ([2]; 20 μM, PhTERT-SEAP(hTERT-H1299)): 1.39
SEAP/vibility ([2]; 205 μM, PhTERT-SEAP(hTERT-H1299)): 2.47
activity at 2 µM ([2]; Homo sapiens, NCI-H1299, 2.0 μM, PhTERT-SEAP(hTERT-H1299), read-out: Relative SEAP activity (%)): 111 ± 3.7%
activity at 20 µM ([2]; Homo sapiens, NCI-H1299, 20 μM, PhTERT-SEAP(hTERT-H1299), read-out: Relative SEAP activity (%)): 115 ± 4.3%
activity at 205 µM ([2]; Homo sapiens, NCI-H1299, 205 μM, PhTERT-SEAP(hTERT-H1299), read-out: Relative SEAP activity (%)): 102 ± 5.5%
viability at 48 h, 205 µM [3, 8]: 76 ± 6.5%
viability at 48 h, 2 µM [3, 7]: 116 ± 7.5%
viability at 48 h, 20 µM [3, 7]: 105 ± 4.4%
IC50 (rat glioma C6 cells): > 20 µM
IC50 (human hepatoma G2 cells): > 20 µM
melting point: 158 to 160 °C
viability at 48 h, 2 µM [5]: 104 ± 8%
viability at 48 h, 20 µM [5]: 83 ± 6.6%
viability at 48 h, 205 µM [5]: 41 ± 4%

From patent US20050009924A1 (priority 2003, published 2005)
